Measurements: patent US20220409582A1, “COMBINATION THERAPIES COMPRISING PANOBINOSTAT FOR THE TREATMENT OF CHOLANGIOCARCINOMA” (SEALD AS, priority 2019, published 2022)
Where two headings read alike, the source gives them in different places.

How the values were obtained:
[1] = tested on: CC-SW-1 cell line; test: Cell TitreGlo cell viability, CC-SW-1 cholangiocarcinoma cells; format: cell-based, human; conditions: for IC50: Homo sapiens; for Delta IC50 absolute value: IC50 panobinostat alone minus IC50 panobinostat + secondary drug, positive = potentiation; for Delta IC50 (%): relative change of panobinostat IC50 with secondary drug
Experimental: (§1) Various cholangiocarcinoma (CCA) cell lines were used for this drug screening.
(§2) For panobinostat as single substance treatment seven cholangiocarcinoma cell lines were used. Panobinostat was then tested in combination with 23 other drugs on four cholangiocarcinoma cell lines. A single concentration of the combination drug was added based on a previously determined IC20 value for the combination drug tested alone on each of the four cell lines.
(§3) The viability data for each plate were normalized to the average of eight replicates of DMSO at 0.1% and seven replicates of Benzethonium Chloride (BzCl) at 100 uM. BzCl serves as a cell killing control that accounts for background signal from dead cells in the CTG luminescence assay. Raw luminescence data were normalized according to the following equation: […]
(§4) The normalized data for each dose response curve were then fit using the function drm from the R package drc. This function uses a four parameter log-logistic curve to fit the dose response data, resulting in values for curve minimum, maximum, IC50, and slope. In the case where a log-logistic curve could not be fit to the data, a logistic curve was used instead.

[2] = tested on: HuCC-T1 cell line; test: Cell TitreGlo cell viability, HuCC-T1 cholangiocarcinoma cells; format: cell-based, human; conditions: for IC50: Homo sapiens
Experimental: as §1, §2, §3, §4

[3] = tested on: EGI-1 cell line; test: Cell TitreGlo cell viability, EGI-1 cholangiocarcinoma cells; format: cell-based, human; conditions: for Delta IC50 absolute value: IC50 panobinostat alone minus IC50 panobinostat + secondary drug, positive = potentiation
Experimental: as §1, §2, §3, §4

[4] = tested on: CC-LP-1 cell line; test: Cell TitreGlo cell viability, CC-LP-1 cholangiocarcinoma cells; format: cell-based; conditions: Homo sapiens, single substance treatment, cell viability 48 h post drug addition
Experimental: as §1
(§5) For panobinostat as single substance treatment seven cholangiocarcinoma cell lines were used. Panobinostat was then tested in combination with 23 other drugs on four cholangiocarcinoma cell lines. A single concentration of the combination drug was added based on a previously determined IC20 value for the combination drug tested alone on each of the four cell lines. The cell line TFK-1 was insensitive to some tested drugs.

[5] = tested on: TFK-1 cell line; test: Cell TitreGlo cell viability, TFK-1 cholangiocarcinoma cells; format: cell-based, human; conditions: for Delta IC50 absolute value: IC50 panobinostat alone minus IC50 panobinostat + secondary drug, positive = potentiation
Experimental: as §1, §2, §3, §4

[6] = tested on: KMBC cell line; test: Cell TitreGlo cell viability, KMBC cholangiocarcinoma cells; format: cell-based; conditions: single substance treatment, cell viability 48 h post drug addition
Experimental: as §1, §5

[7] = tested on: KMCH-1 cell line; test: Cell TitreGlo cell viability, KMCH-1 combined cholangio- and hepatocarcinoma cells; format: cell-based; conditions: single substance treatment, cell viability 48 h post drug addition
Experimental: as §1, §5

[8] = tested on: normal cholangiocytes, cell line H69 (CVCL_8121); conditions: read-out: H69 cell line Mono, panobinostat alone
Text: The effects of various cytotoxic agents on the toxicity of panobinostat in normal cholangiocytes was examined. The cell line H69 (CVCL_8121) was used in experimental procedures described above to determine the IC50 value for panobinostat (the primary drug) on these cells when used in combination with cytotoxic agents (secondary drug) added to the cells at their IC20 concentrations.
The larger difference the more toxic the combination.

[9] = single substance treatment, CC-SW-1, cell viability 48 h post drug addition, read-out: IC50
[10] = Homo sapiens, 48 h, single substance treatment, TFK-1, cell viability 48 h post drug addition, read-out: IC50

Structure (SMILES): Cc1[nH]c2ccccc2c1CCNCc1ccc(/C=C/C(=O)NO)cc1 [Panobinostat, (E)-N-hydroxy-3-[4-[[2-(2-methyl-1H-indol-3-yl)ethylamino]methyl]phenyl]prop-2-enamide]
- IC50 ([1]; panobinostat alone, read-out: CC-SW-1 cell line Mono): 18.4 nM
- IC50 [1, 9]: 12 nM
- Therapeutic index Mono ([1]; IC50 in H69 normal cells / IC50 in CC-SW-1, panobinostat alone): 3.1
- IC50 ([2]; HuCCT-1, panobinostat alone, read-out: HuCCT-1 cell line Mono): 42.4 nM
- IC50 ([2]; HuCCT-1, single substance treatment, HuCC-T1, cell viability 48 h post drug addition, read-out: IC50): 90 nM
- Therapeutic index Mono ([2]; IC50 in H69 normal cells / IC50 in HuCCT-1, panobinostat alone): 0.9
- IC50 ([3]; Homo sapiens, EGI-1, panobinostat alone, read-out: EGI-1 cell line Mono): 62.9 nM
- Therapeutic index Mono ([3]; IC50 in H69 normal cells / IC50 in EGI-1, panobinostat alone): 0.9
- IC50 ([3]; single substance treatment, EGI-1, cell viability 48 h post drug addition, listed as panobinostat, read-out: IC50): 99 nM
- IC50 ([3]; single substance treatment, EGI-1, cell viability 48 h post drug addition, read-out: IC50): 36 nM
- IC50 [4]: 81 nM
- IC50 [5, 10]: 70 nM
- IC50 ([5]; Homo sapiens, panobinostat alone, read-out: TFK-1 cell line Mono): 51.8 nM
- Therapeutic index Mono ([5]; IC50 in H69 normal cells / IC50 in TFK-1, panobinostat alone): 1.1
- IC50 ([5]; single substance treatment, TFK-1, cell viability 48 h post drug addition, read-out: IC50): 95 nM
- IC50 [6]: 88 nM
- IC50 [7]: 99 nM
- IC50 [8]: 56.8 nM

Structure (SMILES): Cc1ccc(C(=O)N(CCCN)[C@@H](c2oc3cc(Cl)ccc3c(=O)c2Cc2ccccc2)C(C)C)cc1 [SB-743921]
- Delta IC50 absolute value ([1]; CC-SW-1): 17.1 nM
- Delta IC50 (%) ([1]; CC-SW-1): 93%
- Delta IC50 absolute value ([2]; HuCCT-1, IC50 panobinostat alone minus IC50 panobinostat + secondary drug, positive = potentiation): 10.8 nM
- Delta IC50 (%) ([2]; HuCCT-1, relative change of panobinostat IC50 with secondary drug): 27%
- Delta IC50 absolute value ([3]; EGI-1): 18.8 nM
- IC50 [5, 10]: 8 nM
- Delta IC50 absolute value ([5]; TFK-1): 28.7 nM

Structure (SMILES): CC[C@@]1(O)C(=O)OCc2c1cc1n(c2=O)Cc2cc3c(CN(C)C)c(O)ccc3nc2-1 [Topotecan, 9-[(dimethylamino)methyl]-10-hydroxy-(45)-camptothecin]
- IC50 [1, 9]: 54 nM
- Therapeutic index Combination ([1]; IC50 in H69 normal cells / IC50 in CC-SW-1, panobinostat + secondary drug at IC20): 5.1
- Therapeutic index Combination ([2]; IC50 in H69 normal cells / IC50 in HuCCT-1, panobinostat + secondary drug at IC20): 1.5
- Delta IC50 absolute value ([3]; EGI-1): 33.1 nM
- Therapeutic index Combination ([3]; IC50 in H69 normal cells / IC50 in EGI-1, panobinostat + secondary drug at IC20): 2.8
- IC50 [5, 10]: 373 nM
- Therapeutic index Combination ([5]; IC50 in H69 normal cells / IC50 in TFK-1, panobinostat + secondary drug at IC20): 2.9
- Delta IC50 absolute value ([5]; TFK-1): 22.3 nM

Structure (SMILES): CC(=O)Nc1cccc(-n2c(=O)n(C3CC3)c(=O)c3c(Nc4ccc(I)cc4F)n(C)c(=O)c(C)c32)c1 [Trametinib]
- Delta IC50 absolute value ([1]; CC-SW-1): 11.3 nM
- Delta IC50 (%) ([1]; CC-SW-1): 62%
- effect on cell viability as single substance treatment ([2]; HuCCT-1, 0.1-1000 nM, 48 h): only minor efficacy
- IC44 ([2]; HuCCT-1, single substance, dose used instead of IC20): 8.8 nM
- Delta IC50 absolute value ([3]; EGI-1): 29.4 nM
- effect on cell viability as single substance treatment ([5]; TFK-1, 0.1-1000 nM, 48 h): only minor efficacy
- Delta IC50 absolute value ([5]; TFK-1): 18.9 nM
